The test system of experiment [1] is cellular pERK in MIA-PaCa-2 (KRAS-G12C) cell-line. In words: Cell based pERK assay (HTRF), MIA-PaCa-2. Conditions: Homo sapiens; MIA-PaCa-2 (KRAS-G12C) cells, 2 hours incubation; read-out: MIAPaCa2 pERK EC50. The essentials: (§1)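 Cellular ERK1/2 phosphorylation is measured by HTRF after a 2 h treatment at 37 °C. Seeding density was 5000 cells/well for AsPC-1 and 7500 cells/well for the other three lines. Ratios are normalized to DMSO and full-inhibition controls, and IC50 values are fitted sigmoidally against log concentration.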
A general note: Time-resolved FRET reads energy transfer from a long-lived donor to a nearby acceptor.

The test system of experiment [2] is cellular pERK in NCI-H441 (KRAS-G12V) cell-line. In words: Cell based pERK assay (HTRF), NCI-H441. The note with it: Homo sapiens; NCI-H441 (KRAS-G12V) cells, 2 hours incubation. The gist of the method:
as §1

For another experiment, the target named is GDP-loaded KRAS-G12D (Homo sapiens (Human), UniProt P01116, G12D). Description: KRAS (GDP) biochemical TR-FRET probe displacement assay, KRAS-G12D. The class given is binding. Conditions: 2 hours. The procedure:
(§2) KRAS (GDP) Biochemical Assays:
(§3) Compounds were serially diluted (1:3) in DMSO. The LabCyte ECHO Acoustic dispenser was used to pre-spot the assay plates (384-well Non-Binding Surface plates, Corning, Catalog #3824) with 50 nL of compound. 5 μL of 2× enzyme concentration was added to the pre-spotted plates and incubated for 30 minutes before adding 5 μL of 2× concentration of Eu-streptavidin and Cy-5 labelled probe (10 μL final reaction volume). The plates were incubated at room temperature for 2 hours before measuring TR-FRET ratio (665 nm/615 nm) on the Envision multimode plate reader. The ratios were normalized to a positive (saturating concentration of known inhibitor) and negative (DMSO) control and plotted against the log of compound concentration.

In experiment [3] the test system is cellular pERK in Kuramochi (WT KRAS) cell-line. Description: Cell based pERK assay (HTRF), Kuramochi. The note with it: Kuramochi (WT KRAS) cells, 2 hours incubation. The gist of the method:
as §1

The target of experiment [4] is GDP-loaded wild-type KRAS (WT) (Homo sapiens (Human), UniProt P01116). Description: KRAS (GDP) biochemical TR-FRET probe displacement assay, WT KRAS. In kind it is binding. Conditions: 2 hours. The procedure: as §2, §3
The next experiment deals with GDP-loaded KRAS-G12C (Homo sapiens (Human), UniProt P01116, G12C). Description: KRAS (GDP) biochemical TR-FRET probe displacement assay, KRAS-G12C. Conditions: 2 hours. In kind it is binding. Here is the method: as §2, §3
The subject of experiment [5] is cellular pERK in ASPC-1 (KRAS G12D) cell-line. Description: Cell based pERK assay (HTRF), ASPC-1. The note with it: Homo sapiens, ASPC1; ASPC-1 (KRAS G12D) cells, 2 hours incubation. The gist of the method:
as §1

For the next experiment, the target named is GDP-loaded KRAS-G12V (Homo sapiens (Human), UniProt P01116, G12V). Description: KRAS (GDP) biochemical TR-FRET probe displacement assay, KRAS-G12V. In kind it is binding. The note with it: 2 hours. The procedure:
as §2, §3

Sequence of GDP-loaded KRAS-G12D (P01116-2 other isoform, or with tags, fused parts or gaps G12D): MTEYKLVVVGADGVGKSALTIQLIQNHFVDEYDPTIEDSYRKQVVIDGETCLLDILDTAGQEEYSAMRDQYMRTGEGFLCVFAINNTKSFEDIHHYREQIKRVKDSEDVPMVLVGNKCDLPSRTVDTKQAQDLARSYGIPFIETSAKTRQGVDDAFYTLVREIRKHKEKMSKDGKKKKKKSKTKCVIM
Sequence of GDP-loaded KRAS-G12C (P01116-2 other isoform, or with tags, fused parts or gaps G12C): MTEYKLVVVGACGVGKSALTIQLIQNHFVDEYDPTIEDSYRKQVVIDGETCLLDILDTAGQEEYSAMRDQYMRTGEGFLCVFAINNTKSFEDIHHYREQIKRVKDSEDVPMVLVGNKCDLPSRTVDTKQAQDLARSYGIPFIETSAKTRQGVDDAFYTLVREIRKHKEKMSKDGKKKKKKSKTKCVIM
Sequence of GDP-loaded wild-type KRAS (WT) (P01116-2 other isoform, or with tags, fused parts or gaps): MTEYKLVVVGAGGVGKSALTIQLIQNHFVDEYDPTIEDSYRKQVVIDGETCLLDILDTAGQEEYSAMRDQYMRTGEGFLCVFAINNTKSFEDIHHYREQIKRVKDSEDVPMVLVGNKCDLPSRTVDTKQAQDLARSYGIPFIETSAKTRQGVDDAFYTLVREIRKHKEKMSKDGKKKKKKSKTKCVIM
Sequence of GDP-loaded KRAS-G12V (P01116-2 other isoform, or with tags, fused parts or gaps G12V): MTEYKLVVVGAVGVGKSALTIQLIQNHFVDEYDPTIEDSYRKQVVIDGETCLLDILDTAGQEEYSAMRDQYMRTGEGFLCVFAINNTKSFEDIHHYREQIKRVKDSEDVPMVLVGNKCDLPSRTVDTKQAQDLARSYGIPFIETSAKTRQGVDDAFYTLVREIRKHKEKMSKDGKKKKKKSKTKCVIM

One may read the EC50 as the concentration needed to bring the measured effect to its halfway point. In general, IC50 refers to the point on the concentration scale where inhibition reaches its midpoint. Take `C#Cc1c(F)ccc2cc(O)cc(-c3nc4c5c(nc(OC[C@@]67CCCN6[C@H](COC(C(F)(F)F)(C(F)(F)F)C(F)(F)F)CC7)nc5c3F)N3CCCOC[C@@H]3CC4)c12` [Example 22-4]: the EC50 in experiment [1] came out at 0.86 nM; in experiment [2], 1.97 nM; in experiment [3], 3.16 nM; in experiment [5] it was 2.31 nM. In addition, the IC50 on GDP-loaded KRAS-G12D is 1.65 nM; in experiment [4] it was 1.2 nM; on GDP-loaded KRAS-G12C, 1.83 nM; on GDP-loaded KRAS-G12V, 1.59 nM.

These data come from patent publication US20240383922A1, “KRAS Modulating Compounds” (Gilead Sciences, Inc., priority 2023, published 2024).
